Assays:
[1] = NanoBRET assay (AKT1); conditions: Homo sapiens
ZR-75-1 = experiment: CellTiter-Glo luminescent cell viability assay (CTG) with ZR-75-1 cells; format: functional, cell-based; conditions: Homo sapiens
[2] = molecular target: RAC-alpha serine/threonine-protein kinase (Homo sapiens, UniProt P31749); experiment: Homogeneous Time Resolved Fluorescence (HTRF) assay (AKT1)
AN3-CA = experiment: CellTiter-Glo luminescent cell viability assay (CTG) with AN3-CA cells; format: functional, cell-based; conditions: Homo sapiens
[3] = NanoBRET assay (AKT3); conditions: Homo sapiens
[4] = NanoBRET assay (AKT2); conditions: Homo sapiens

Sequence of RAC-alpha serine/threonine-protein kinase (P31749 whole entry): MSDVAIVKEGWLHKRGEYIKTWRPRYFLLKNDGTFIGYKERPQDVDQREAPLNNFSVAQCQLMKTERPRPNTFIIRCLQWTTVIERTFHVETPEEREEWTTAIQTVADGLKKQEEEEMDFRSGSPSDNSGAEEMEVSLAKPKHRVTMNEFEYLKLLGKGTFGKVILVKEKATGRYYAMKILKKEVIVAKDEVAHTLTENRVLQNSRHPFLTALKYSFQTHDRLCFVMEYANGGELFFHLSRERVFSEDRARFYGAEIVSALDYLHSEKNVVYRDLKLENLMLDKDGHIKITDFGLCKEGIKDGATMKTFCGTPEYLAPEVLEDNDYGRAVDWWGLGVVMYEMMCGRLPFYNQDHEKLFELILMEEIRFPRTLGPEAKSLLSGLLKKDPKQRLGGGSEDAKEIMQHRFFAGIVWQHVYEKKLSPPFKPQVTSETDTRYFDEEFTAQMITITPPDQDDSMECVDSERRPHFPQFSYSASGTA

In the case of `C=CC(=O)Nc1ccc2[nH]c(=O)n(C3CCN(Cc4ccc(-c5ccc6c(c5)NC(=O)CO6)cc4)CC3)c2c1` [RL2578], the EC50 [1] is reported as 3.5 µM (not active), the IC50 [1] is reported as 1.9 µM (not active) and the EC50 (ZR-75-1) is reported as 4.2 µM (not active). For the same molecule, the IC50 [2] was 9.2 µM (not active), the EC50 (AN3-CA) was 18 µM (not active) and the EC50 [3] was 9.3 µM (not active). For the same molecule, the IC50 [3] was 18 µM (not active), the EC50 [4] was 4.8 µM (not active) and the IC50 [4] was 8.3 µM (not active).
